Measured values reported in patent US12059429B2, “Hornerin: a novel non-VEGF mediated angiogenic protein expressed in both human and mouse angiogenic endothelial cells and human pancreatic cancer cells” (University of Virginia Patent Foundation, priority 2018, dated 2024).

Assays:
Assay type in all cases: in vivo, mouse
L3.6pl PDAC cells = assay: Subcutaneous L3.6pl PDAC xenograft tumor volume
Method: A tumor sample size of four was determined by power analysis based on prior tumor xenograft studies. For our 80% power analysis, the difference between means was 200 mm^3, standard deviation was 100 mm^3, and P-value<0.05 (P<0.05). Tumors were measured at least twice weekly until their volume was >1000 mm^3, at which point animals were euthanized. Tumor size data were collected from each tumor, with the exception of one tumor in the combination treatment experiment that was identified with 90% confidence via Grubb's Outlier Test. The following number of mice in each treatment cohort was evaluated for tumor outgrowth: (Scr siRNA/ctrl., N=15; Hrnr siRNA/ctrl., N=14; Scr siRNA/AV-951, N=8; Hrnr siRNA/AV-951, N=8).
For tumor implantation, L3.6pl cells were grown under normal culture conditions for 72 hours prior to being trypsinized and enumerated. The cells were suspended in aliquots of 500,000 cells/50 μL Hanks Balanced Salt Solution (HBSS; Corning, Manassas, VA, USA) and 50 μL of Matrigel (BD Biosciences, San Jose, CA, USA) was added to each aliquot of cells prior to implantation. The cell-Matrigel slurry was injected subcutaneously into nu/nu mice on the flanks or orthotopically into the pancreas (Seaman et al., 2011). The injection site for subcutaneous tumors was monitored daily for growth and tumor volume was calculated form caliper measurements using the formula (width^2×length)/2.
The VEGFR inhibitor AV-951 (Selleck Chemicals, Houston, TX, USA) was suspended in 0.5% methocel+0.5% Tween-20 in HBSS to increase viscosity and 50 μL of 1.0 mg/kg AV-951 or VC solution was administered once daily by oral gavage (22-gauge gavage needle (Kent Scientific, Torrington, CT, USA) connected to a 1 mL syringe). […] To prepare Hrnr siRNA and Silencer Select Negative Control #1 Scr siRNA (Invitrogen; catalog number 4390844) for injection, 10 μg of hornerin or control siRNA were combined with in vivo-jetPEI transfection reagent (Polyplus, France) in solution with 5% glucose per Polyplus instructions (total volume 50 μL). After a 30 minutes incubation, the siRNA solutions were injected slowly into the center of the tumor. A second independent hornerin knockdown experiment was conducted using a pooled set of three unique mouse Hrnr siRNA duplexes (5′-[…]-3′ (SEQ ID NO: 50); 5 ‘-[…]-3’ (SEQ ID NO: 51); 5 ‘-[…]-3’ (SEQ ID NO: 52)) and Scr siRNA (Origene, Rockville, MD, USA). The reagent preparation and injection protocol were similar to that described above.

hornerin transcript = assay: qPCR of hornerin transcript in FACS-sorted CD31+CD45- tumor endothelial cells; conditions: vs Scr siRNA, 20 hours after injection
Method: Day 10 tumors were injected with either Scr siRNA or Hrnr siRNA and excised 20 hours later. The tumors were immediately washed in PBS (+Mg/+Ca), minced with scalpels, treated with Collagenase Type II (Worthington Biochemical Corporation, Lakewood, NJ, USA; (2.0 mg/mL) serum-free DMEM, 100 minutes at 37° C.), and filtered through a 40 μm cell strainer. The cell suspension (filtrate) was incubated with the following antibody/dye panel for FACS; anti-CD45 AF488 (1:100; Biolegend, San Diego, CA, USA, 103121, clone 30-F11), anti-CD31 AF647 (1:100; Biolegend, 102415, clone 390), LIVE/DEAD violet stain (1:200; Thermo Fisher). Flow cytometry analysis was completed on the Cyan ADP LX (Beckman Coulter). Compensation and data analysis was completed using FlowJo software (Ashland, OR, USA). […]
RNA was isolated from FACS-sorted CD31^+CD45^− cells according to the manufacturer's protocol (Qiagen mini-prep kit), and concentration and purity were determined using a NanoDrop Spectrophotometer (Thermo Fisher). Complimentary DNA (cDNA) was generated (Qiagen QuantiTect Reverse Transcription Kit) and subjected to pre-amplification (SsoAdvanced PreAmp Supermix, Bio-Rad). […] Melt curve analysis was performed on the hornerin and cyclophilin primer sets prior to data collection and normalized gene expression was determined by the delta delta Ct method.

hornerin = assay: Immunofluorescent microscopy of hornerin protein in tumor sections; conditions: vs Scr siRNA
Method: Tumor sections were deparaffinized, rehydrated, heated in antigen retrieval solution (Vector), blocked for 30 minutes in blocking buffer, and incubated with anti-CD34 antibody (Abcam, ab8158, clone MEC14.7; 1:100) in blocking buffer overnight at 4° C. The sections were then incubated with goat anti-rat FITC secondary antibody (Abcam, ab6840; 1:100) in blocking buffer prior to mounting with Prolong Gold Antifade reagent (Invitrogen). Anti-actin, α-smooth muscle Cy3 antibody (Sigma, C6198, clone 1A4; 1:200) was added to the primary antibody solution if assaying for alpha-smooth muscle actin. […] Images were collected using a Nikon TE 2000-E2 microscope (Nikon Instruments) equipped with a Melles Griot Argon Laser System (Melles Griot, Carlsbad, CA, USA) and a Nikon D-Eclipse C1 confocal attachment and analyzed by Measurement Tool in Image J. To measure the relative hornerin expression in tumor vessels, three vessel segments per image were isolated and their mean intensity and area were measured and recorded. A weighted mean intensity was calculated to correct for differences in selected area. To measure the relative hornerin expression in tumor tissue, the mean intensity from three square sections (75×75 pixel) of tumor tissue per image was measured and recorded.

Question: “5′-GCAUGGAUCUUGUUGCGGUTT-3′ [Hrnr siRNA]” was tested. Which “tumors smaller compared to Scr siRNA-injected tumors” value (L3.6pl PDAC cells; intratumoral injection every other day from day 7, volume at day 13 post implantation) did it give?
Answer: 2.5 fold

Question: And the “reduction in tumor volume (discussion summary)” value (L3.6pl PDAC cells; monotherapy or combined therapies)?
Answer: two-fold

Question: What about the “reduction in hornerin transcript” value (hornerin transcript) of the same substance?
Answer: 78%

Question: And the “decrease in hornerin expression in endothelial cells” value (hornerin; CD34+ tumor vessels)?
Answer: 30%

Question: What about the “hornerin expression in epithelial cells from tumors” value (hornerin) of the same substance?
Answer: no difference
